Experiments:
[1] = LNP size and polydispersity index by Malvern Zetasizer dynamic light scattering (CA HA modFlu mRNA LNPs); format: physicochemical; conditions: DLS; for Size (nm): LNP of the ionizable lipid:cholesterol:DSPC:ALC-0159 about 46.3:42.7:9.4:1.6, N:P about 6:1, CA HA modFlu mRNA; for PDI: LNP with CA HA modFlu mRNA
Protocol: (§1) Lipid nanoparticles were prepared and tested according to the general procedures described in U.S. Pat. No. 9,737,619 (PCT Pub. No. WO2015/199952) and U.S. Pat. No. 10,166,298 (PCT Pub. No. WO 2017/075531) and PCT Pub. No. WO2020/146805. The novel ionizable lipids of the invention, cholesterol, distearoylphosphatidylcholine (DSPC) and ALC-0159 2-[(polyethylene glycol)-2000]-N,N ditetradecylacetamide were solubilized in ethanol at a molar ratio of about 46.3:42.7:9.4:1.6. Lipid nanoparticles were made by mixing the lipids containing organic phase with the mRNA containing aqueous phase using an N:P ratio of about 6:1. The mRNA was diluted in buffer. Syringe pumps were used to mix the ethanolic lipid solution with the mRNA aqueous solution. The ethanol was then removed, and the external buffer replaced with another buffer (e.g., Tris) by dialysis. Finally, the lipid nanoparticles were filtered.
(§2) Total RNA concentration and encapsulation efficiency was assessed using the RiboGreen RNA quantitation assay. RNA integrity pre and post formulation was monitored by Agilent Fragment Analyzer capillary gel electrophoresis. Malvern Zetasizer dynamic light scattering (DLS) was used to determine LNP size and polydispersity index (PDI). In vitro expression of the novel ionizable lipid nanoparticles was assessed in HEK293F and Hela cells similar to described in Example 72. Nuclear count and identification of cells stained positive for gene of interest was done on an Opera Phenix high content imager (PerkinElmer, USA).

[2] = tested on: Hela cells; assay: In vitro expression of novel ionizable lipid nanoparticles, high content imaging (CA HA modFlu mRNA); format: cell-based; conditions: LNP with CA HA modFlu mRNA
Protocol: (§3) Plated Hek293T or Hela cells were dosed with lipid nanoparticles in a total volume of 40 μl cell culture media and incubated overnight at 37° C. and 5% CO2. After fixation with 4% paraformaldehyde in PBS cells were washed in PBS containing 0.3% Triton-X100 and 3% BSA (w/v), followed by nuclear staining with Hoechst and antibody staining for the encoded gene of interest. Nuclear count and identification of cells stained positive for gene of interest was done on an Opera Phenix high content imager (PerkinElmer, USA).
as §1, §2

[3] = tested on: HEK293F cells; assay: as above; format: cell-based; conditions: LNP with CA HA modFlu mRNA
Protocol: as §3, §1, §2

[4] = Encapsulation efficiency, RiboGreen RNA quantitation assay (CA HA modFlu mRNA LNPs); format: physicochemical; conditions: LNP with CA HA modFlu mRNA
Protocol: as §1, §2

SMILES: CCCCCCCC(CCCCCCC)C(=O)O[C@@H]1CC2(CCN(CCO)CC2)C[C@H]1OC(=O)C(CCCCCCC)CCCCCCC (racemic) [Example 52, rac-(2R,3R)-8-(2-hydroxyethyl)-8-azaspiro[4.5]decane-2,3-diyl bis(2-heptylnonanoate)]
- Size (nm) [1]: 66 nm
- PDI [1]: 0.088
- EC50 Hela (ng/well) [2]: 11.0 ng/well
- EC50 Hek293F (ng/well) [3]: 3.3 ng/well
- EE % [4]: 99%

SMILES: CCCCCCCC(CCCCCCC)C(=O)O[C@@H]1CC2(CCN(CCCO)C2)C[C@H]1OC(=O)C(CCCCCCC)CCCCCCC (racemic) [Example 53, rac-(7R,8R)-2-(3-hydroxypropyl)-2-azaspiro[4.4]nonane-7,8-diyl bis(2-heptylnonanoate)]
- Size (nm) [1]: 89 nm
- PDI [1]: 0.090
- EC50 Hela (ng/well) [2]: 29.5 ng/well
- EC50 Hek293F (ng/well) [3]: 2.3 ng/well
- EE % [4]: 94%

SMILES: CCCCCCCC(CCCCCCC)C(=O)O[C@@H]1CC2(CCN(CCCO)CC2)C[C@H]1OC(=O)C(CCCCCCC)CCCCCCC (racemic) [Example 54, rac-(2R,3R)-8-(3-hydroxypropyl)-8-azaspiro[4.5]decane-2,3-diyl bis(2-heptylnonanoate)]
- Size (nm) [1]: 71 nm
- PDI [1]: 0.101
- EC50 Hela (ng/well) [2]: 3.6 ng/well
- EC50 Hek293F (ng/well) [3]: 1.5 ng/well
- EE % [4]: 98%

SMILES: CCCCCCCC(CCCCCCC)C(=O)O[C@@H]1CC2(CCN(CCCNc3c(NC)c(=O)c3=O)CC2)C[C@H]1OC(=O)C(CCCCCCC)CCCCCCC (racemic) [Example 55, rac-(2R,3R)-8-(3-((2-(methylamino)-3,4-dioxocyclobut-1-en-1-yl)amino)propyl)-8-azaspiro[4.5]decane-2,3-diyl bis(2-heptylnonanoate)]
- Size (nm) [1]: 65 nm
- PDI [1]: 0.124
- EC50 Hela (ng/well) [2]: 45.0 ng/well
- EC50 Hek293F (ng/well) [3]: 21.4 ng/well
- EE % [4]: 100%

SMILES: CCCCCCCC(CCCCCCC)C(=O)O[C@@H]1CC2(CCN(CCCCCO)CC2)C[C@H]1OC(=O)C(CCCCCCC)CCCCCCC (racemic) [Example 56, rac-(2R,3R)-8-(5-hydroxypentyl)-8-azaspiro[4.5]decane-2,3-diyl bis(2-heptylnonanoate)]
- Size (nm) [1]: 81 nm
- PDI [1]: 0.063
- EC50 Hela (ng/well) [2]: 0.96 ng/well
- EC50 Hek293F (ng/well) [3]: 0.60 ng/well
- EE % [4]: 98%

SMILES: CCCCCCCCC(CCCCCCCC)C(=O)O[C@@H]1CC2(CCN(CCCCO)CC2)C[C@H]1OC(=O)C(CCCCCCCC)CCCCCCCC (racemic) [Example 59, rac-(2R,3R)-8-(4-hydroxybutyl)-8-azaspiro[4.5]decane-2,3-diyl bis(2-octyldecanoate)]
- Size (nm) [1]: 80 nm
- PDI [1]: 0.091
- EC50 Hela (ng/well) [2]: 34.6 ng/well
- EC50 Hek293F (ng/well) [3]: 2.3 ng/well
- EE % [4]: 97%

SMILES: CCCCCCCCCCCCC(CCCCCCC)C(=O)O[C@@H]1CC2(CCN(CCCCO)CC2)C[C@H]1OC(=O)C(CCCCCCC)CCCCCCCCCCCC (mixture of isomers) [Example 60, rac-(2R,3R)-8-(4-hydroxybutyl)-8-azaspiro[4.5]decane-2,3-diyl bis(2-heptyltetradecanoate)]
- Size (nm) [1]: 94 nm
- PDI [1]: 0.117
- EC50 Hela (ng/well) [2]: >50 ng/well
- EC50 Hek293F (ng/well) [3]: 1.6 ng/well
- EE % [4]: 98%

SMILES: CCCCCCCCC(CCCCCC)C(=O)O[C@@H]1CC2(CCN(CCCCO)CC2)C[C@H]1OC(=O)C(CCCCCC)CCCCCCCC (mixture of isomers) [Example 61, rac-(2R,3R)-8-(4-hydroxybutyl)-8-azaspiro[4.5]decane-2,3-diyl bis(2-hexyldecanoate)]
- Size (nm) [1]: 77 nm
- PDI [1]: 0.094
- EC50 Hela (ng/well) [2]: 1.6 ng/well
- EC50 Hek293F (ng/well) [3]: 1.0 ng/well
- EE % [4]: 99%

SMILES: CCCCCCCC(CCCCCCC)OC(=O)CCC(=O)O[C@@H]1CC2(CCN(CCCCO)CC2)C[C@H]1OC(=O)CCC(=O)OC(CCCCCCC)CCCCCCC (racemic) [Example 62, rac-O,O′-((2R,3R)-8-(4-hydroxybutyl)-8-azaspiro[4.5]decane-2,3-diyl) di(pentadecan-8-yl) disuccinate]
- Size (nm) [1]: 161 nm
- PDI [1]: 0.090
- EC50 Hela (ng/well) [2]: 1.0 ng/well
- EC50 Hek293F (ng/well) [3]: 0.36 ng/well
- EE % [4]: 99%

SMILES: CCCCCCCC(CCCCCCC)OC(=O)CCCCCC(=O)O[C@@H]1CC2(CCN(CCCCO)CC2)C[C@H]1OC(=O)CCCCCC(=O)OC(CCCCCCC)CCCCCCC (racemic) [Example 63, rac-O′^1,O^1-((2R,3R)-8-(4-hydroxybutyl)-8-azaspiro[4.5]decane-2,3-diyl) 7,7′-di(pentadecan-8-yl) di(heptanedioate)]
- Size (nm) [1]: 107 nm
- PDI [1]: 0.060
- EC50 Hela (ng/well) [2]: 0.58 ng/well
- EC50 Hek293F (ng/well) [3]: 0.39 ng/well
- EE % [4]: 99%

SMILES: CCCCCCCC(CCCCCCC)C(=O)OCCCCCC(=O)O[C@@H]1CC2(CCN(CCCCO)CC2)C[C@H]1OC(=O)CCCCCOC(=O)C(CCCCCCC)CCCCCCC (racemic) [Example 64, rac-(((2R,3R)-8-(4-hydroxybutyl)-8-azaspiro[4.5]decane-2,3-diyl)bis(oxy))bis(6-oxohexane-6,1-diyl) bis(2-heptylnonanoate)]
- Size (nm) [1]: 110 nm
- PDI [1]: 0.056
- EC50 Hela (ng/well) [2]: 0.69 ng/well
- EC50 Hek293F (ng/well) [3]: 0.64 ng/well
- EE % [4]: 99%

SMILES: CCCCCCCCC(CCCCC)C(=O)O[C@@H]1CC2(CCN(CCCCO)CC2)C[C@H]1OC(=O)C(CCCCC)CCCCCCCC (mixture of isomers) [Example 65, rac-(2R,3R)-8-(4-hydroxybutyl)-8-azaspiro[4.5]decane-2,3-diyl bis(2-pentyldecanoate)]
- Size (nm) [1]: 123 nm
- PDI [1]: 0.038
- EC50 Hela (ng/well) [2]: 0.57 ng/well
- EC50 Hek293F (ng/well) [3]: 0.35 ng/well
- EE % [4]: 97%

SMILES: CCCCCCCCC(CCCCCCC)C(=O)O[C@@H]1CC2(CCN(CCCCO)CC2)C[C@H]1OC(=O)C(CCCCCCC)CCCCCCCC (mixture of isomers) [Example 66, rac-(2R,3R)-8-(4-hydroxybutyl)-8-azaspiro[4.5]decane-2,3-diyl bis(2-heptyldecanoate)]
- Size (nm) [1]: 78 nm
- PDI [1]: 0.146
- EC50 Hela (ng/well) [2]: 2.2 ng/well
- EC50 Hek293F (ng/well) [3]: 1.1 ng/well
- EE % [4]: 97%

SMILES: CCCCCCCCCC(CCCCCC)C(=O)O[C@@H]1CC2(CCN(CCCCO)CC2)C[C@H]1OC(=O)C(CCCCCC)CCCCCCCCC (mixture of isomers) [Example 67, rac-(2R,3R)-8-(4-hydroxybutyl)-8-azaspiro[4.5]decane-2,3-diyl bis(2-hexylundecanoate)]
- Size (nm) [1]: 89 nm
- PDI [1]: 0.127
- EC50 Hela (ng/well) [2]: 2.0 ng/well
- EC50 Hek293F (ng/well) [3]: 1.4 ng/well
- EE % [4]: 96%

SMILES: CCCCCCCCC(CCCCCC)C(=O)O[C@@H]1CC2(CCN(CCCCO)CC2)C[C@H]1OC(=O)C(CC)CCCCCCC (mixture of isomers) [Example 70, rac-(2R,3R)-3-((2-ethylnonanoyl)oxy)-8-(4-hydroxybutyl)-8-azaspiro[4.5]decan-2-yl 2-hexyldecanoate]
- Size (nm) [1]: 116 nm
- PDI [1]: 0.110
- EC50 Hela (ng/well) [2]: 1.2 ng/well
- EC50 Hek293F (ng/well) [3]: 3.0 ng/well
- EE % [4]: 98%

— patent US20250367129A1, “Lipid Compounds and Uses Thereof” (Pfizer Inc., priority 2022, published 2025)
